From article PMC3159548 (Biochemical pharmacology, 2011)
Several values for one entry are separate records, joined by “and”; a condition that tells them apart may be missing. Equal values may be shown once. Where a name gives a salt, the structure may show the parent alone. Read-outs that look alike come from different tables or passages of the source. Blank lines part the entries; values can stand above or below the molecule they belong to.

Legend:
CYP2C8.3 [1] = target: T1, CYP2C8.3 (Homo sapiens, UniProt P10632, K399R/R139K); experiment: Equilibrium spectral binding of ligands and redox cofactors to purified CYP2C8.3; conditions: for % change in Bmax, first binding event / % change in Bmax, second binding event / % change in Bmax, redox partner binding: CYP2C8.3 in comparison to CYP2C8.1; for Kd: read-out: KD of redox partner, spectral binding of redox partner to CYP2C8.3
T1 sequence (P10632 1-490 R139K/K399R): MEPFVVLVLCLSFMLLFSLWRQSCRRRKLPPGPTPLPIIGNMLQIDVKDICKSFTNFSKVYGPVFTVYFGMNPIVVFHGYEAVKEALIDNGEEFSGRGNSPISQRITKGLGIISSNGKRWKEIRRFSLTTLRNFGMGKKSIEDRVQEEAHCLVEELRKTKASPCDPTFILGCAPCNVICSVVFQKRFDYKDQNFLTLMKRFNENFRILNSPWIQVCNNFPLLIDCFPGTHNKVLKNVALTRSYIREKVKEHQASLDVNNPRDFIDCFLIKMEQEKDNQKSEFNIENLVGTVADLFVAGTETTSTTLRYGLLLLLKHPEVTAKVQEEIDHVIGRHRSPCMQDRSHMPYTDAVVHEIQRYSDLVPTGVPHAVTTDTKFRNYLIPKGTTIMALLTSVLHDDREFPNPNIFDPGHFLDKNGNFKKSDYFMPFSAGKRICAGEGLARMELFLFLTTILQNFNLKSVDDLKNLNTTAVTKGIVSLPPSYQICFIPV

[2] = target: T2, P450 reductase - CYP2C8.3 complex (Homo sapiens, UniProt P10632, K399R/R139K); conditions: probe reaction of each substrate
T2 sequence (P10632 1-490 R139K/K399R): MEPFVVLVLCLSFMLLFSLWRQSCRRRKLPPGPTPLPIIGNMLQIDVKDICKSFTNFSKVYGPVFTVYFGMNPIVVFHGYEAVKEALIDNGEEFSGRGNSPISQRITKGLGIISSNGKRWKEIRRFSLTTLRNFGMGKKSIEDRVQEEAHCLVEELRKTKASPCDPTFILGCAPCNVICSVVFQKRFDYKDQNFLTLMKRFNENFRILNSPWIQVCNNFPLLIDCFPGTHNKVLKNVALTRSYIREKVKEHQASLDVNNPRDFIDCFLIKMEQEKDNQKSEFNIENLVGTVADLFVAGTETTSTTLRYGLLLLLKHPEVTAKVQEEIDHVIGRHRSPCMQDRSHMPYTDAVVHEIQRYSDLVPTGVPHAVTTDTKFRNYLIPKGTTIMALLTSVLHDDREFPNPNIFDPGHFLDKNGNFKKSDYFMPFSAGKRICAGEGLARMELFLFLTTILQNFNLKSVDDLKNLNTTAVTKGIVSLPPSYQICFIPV

CYP2C8.1 [3] = target: T3, CYP2C8.1 (Homo sapiens, UniProt P10632); conditions: ref [8], cited from earlier work; for Clint: kcat/Km
T3 sequence (P10632 1-490): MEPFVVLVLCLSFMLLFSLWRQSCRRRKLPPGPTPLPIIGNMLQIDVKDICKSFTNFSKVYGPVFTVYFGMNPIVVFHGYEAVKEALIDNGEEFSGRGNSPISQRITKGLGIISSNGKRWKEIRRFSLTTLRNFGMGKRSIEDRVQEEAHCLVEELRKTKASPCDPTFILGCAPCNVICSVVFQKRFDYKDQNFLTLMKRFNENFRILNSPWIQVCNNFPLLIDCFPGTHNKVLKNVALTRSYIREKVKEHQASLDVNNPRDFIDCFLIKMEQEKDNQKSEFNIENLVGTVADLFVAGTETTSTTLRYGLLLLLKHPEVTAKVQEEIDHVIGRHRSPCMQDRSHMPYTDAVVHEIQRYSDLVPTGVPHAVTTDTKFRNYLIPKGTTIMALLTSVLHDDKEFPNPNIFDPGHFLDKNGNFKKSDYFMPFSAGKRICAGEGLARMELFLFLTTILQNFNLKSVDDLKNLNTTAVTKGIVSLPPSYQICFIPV

CYP2C8 = conditions: excess of cytochrome b5 (up to 10:1)
CYP2C8.3 [4] = target: T1, CYP2C8.3; conditions: ref [8], cited from earlier work; for Clint: kcat/Km
CYP2C8.3 [5] = target: T1, CYP2C8.3
CYP2C8.1 [6] = target: T3, CYP2C8.1; conditions: for Clint: kcat/Km
CYP2C8.3 [7] = target: T1, CYP2C8.3; conditions: for Clint: kcat/Km
CYP2C8.3 [8] = target: T1, CYP2C8.3; conditions: absence of cytochrome b5 in the reconstitution system; CPR:CYP2C8 2:1
CYP2C8.1 [9] = target: T3, CYP2C8.1; experiment: Equilibrium spectral binding of ligands and redox cofactors to purified CYP2C8.1; conditions: read-out: KD of redox partner; spectral binding of redox partner to CYP2C8.1
[10] = substrate: CC(=O)O[C@H]1C(=O)[C@@]2(C)[C@H]([C@H](OC(=O)c3ccccc3)[C@]3(O)C[C@H](OC(=O)[C@H](O)[C@@H](NC(=O)c4ccccc4)c4ccccc4)C(C)=C1C3(C)C)[C@]1(OC(C)=O)CO[C@@H]1C[C@@H]2O
[11] = substrate: CCN(CC)Cc1cc(Nc2ccnc3cc(Cl)ccc23)ccc1O
[12] = substrate: CN(CCOc1ccc(CC2SC(=O)NC2=O)cc1)c1ccccn1
[13] = substrate: CCN(CC)Cc1cc(Nc2ccnc3cc(Cl)ccc23)ccc1O; remark: listed apart in the source
[14] = substrate: CN(CCOc1ccc(CC2SC(=O)NC2=O)cc1)c1ccccn1; remark: listed apart in the source
[15] = CER hydroxylation (M23 formation)

% change in Bmax, first binding event (CYP2C8.3 [1]): +45% | % change in Bmax, second binding event (CYP2C8.3 [1]): +533% | decrease of Km, red of CYP2C8.3 in comparison to CYP2C8.1 [2]: did not vary | inhibition of CYP-activity by cytochrome b5 (CYP2C8): less evident
Molecule: COCc1c(C(C)C)nc(C(C)C)c(/C=C/[C@@H](O)C[C@@H](O)CC(=O)O)c1-c1ccc(F)cc1 [CER, (3R,5S,6E)-7-[4-(4-Fluorophenyl)-5-(methoxymethyl)-2,6-bis(1-methylethyl)-3-pyridinyl]-3,5-dihydroxy-6-heptenoic Acid Sodium Salt]
Clint (CYP2C8.1 [3]; CER O-demethylation): 0.024 µM⁻¹ min⁻¹ | Km (CYP2C8.1 [3]; CER O-demethylation): 24 ± 3 µM | kcat (CYP2C8.1 [3]; CER O-demethylation): 0.57 ± 0.02 nmol nmol P450^−1 min^−1 | Km (CYP2C8.1 [3]; [15]): 23 ± 2 µM | kcat (CYP2C8.1 [3]; [15]): 0.22 ± 0.01 nmol nmol P450^−1 min^−1 | Clint (CYP2C8.1 [3]; CER hydroxylation): 0.0096 µM⁻¹ min⁻¹ | Clint (CYP2C8.3 [4]; CER O-demethylation): 0.11 µM⁻¹ min⁻¹ | Km (CYP2C8.3 [4]; CER O-demethylation): 13 ± 2 µM | kcat (CYP2C8.3 [4]; CER O-demethylation): 1.47 ± 0.06 (**) nmol nmol P450^−1 min^−1 | Km (CYP2C8.3 [4]; [15]): 13 ± 2 µM | kcat (CYP2C8.3 [4]; [15]): 0.61 ± 0.03 (**) nmol nmol P450^−1 min^−1 | Clint (CYP2C8.3 [4]; CER hydroxylation): 0.047 µM⁻¹ min⁻¹

% change in Bmax, first binding event (CYP2C8.3 [1]): +79% | % change in Bmax, second binding event (CYP2C8.3 [1]): −14% | Ki (CYP2C8.3 [5]): 103000 nM | substrate inhibition (CYP2C8.1 [6]; CYP2C8.1): negligible | fold higher Clint (kcat/Km) for CYP2C8.3 compared to CYP2C8.1 (CYP2C8.3 [7]; DEAQ formation, p-hydroxy and N-de-methyl RG, PAC 6α-hydroxylation): 1.5 fold | Clint (CYP2C8.3 [7]; PAC 6α-hydroxylation): 0.16 µM⁻¹ min⁻¹ | decrease of Km, red of CYP2C8.3 in comparison to CYP2C8.1 [2]: ~7 fold | activity of CYP2C8.3 compared to CYP2C8.1 (CYP2C8.3 [8]): less active | inhibition of CYP-activity by cytochrome b5 (CYP2C8): strong inhibition
Molecule: CC(=O)O[C@H]1C(=O)[C@@]2(C)[C@H]([C@H](OC(=O)c3ccccc3)[C@]3(O)C[C@H](OC(=O)[C@H](O)[C@@H](NC(=O)c4ccccc4)c4ccccc4)C(C)=C1C3(C)C)[C@]1(OC(C)=O)CO[C@@H]1C[C@@H]2O [PAC, paclitaxel]

Ki (CYP2C8.3 [5]): 150000 nM | Clint (CYP2C8.1 [6]; RG N-de-methylation): 0.13 µM⁻¹ min⁻¹ | Clint (CYP2C8.1 [6]; RG p-hydroxylation): 0.11 µM⁻¹ min⁻¹ | Clint (CYP2C8.3 [7]; RG N-de-methylation): 0.33 µM⁻¹ min⁻¹ | Clint (CYP2C8.3 [7]; RG p-hydroxylation): 0.29 µM⁻¹ min⁻¹
Molecule: CN(CCOc1ccc(CC2SC(=O)NC2=O)cc1)c1ccccn1 (centres unmarked) [RG, rosiglitazone]

B1: Cytochrome b5: expressed cytochrome b5; redox partner of CYP2C8 (protein, UniProt P00167 2-134, looked up)
Cytochrome b5: AEQSDEAVKYYTLEEIQKHNHSKSTWLILHHKVYDLTKFLEEHPGGEEVLREQAGGDATENFEDVGHSTDAREMSKTFIIGELHPDDRPKLNKPPETLITTIDSSSSWWTNWVIPAISAVAVALMYRLYMAED
Kd (CYP2C8.1 [9]): 34.4 ± 0.4 nM | % change in Bmax, redox partner binding (CYP2C8.3 [1]): +298% | Kd (CYP2C8.3 [1]): 16.8 ± 0.3 nM

B2: CYP2C8.1 (Homo sapiens) (protein)
chain: MEPFVVLVLCLSFMLLFSLWRQSCRRRKLPPGPTPLPIIGNMLQIDVKDICKSFTNFSKVYGPVFTVYFGMNPIVVFHGYEAVKEALIDNGEEFSGRGNSPISQRITKGLGIISSNGKRWKEIRRFSLTTLRNFGMGKRSIEDRVQEEAHCLVEELRKTKASPCDPTFILGCAPCNVICSVVFQKRFDYKDQNFLTLMKRFNENFRILNSPWIQVCNNFPLLIDCFPGTHNKVLKNVALTRSYIREKVKEHQASLDVNNPRDFIDCFLIKMEQEKDNQKSEFNIENLVGTVADLFVAGTETTSTTLRYGLLLLLKHPEVTAKVQEEIDHVIGRHRSPCMQDRSHMPYTDAVVHEIQRYSDLVPTGVPHAVTTDTKFRNYLIPKGTTIMALLTSVLHDDKEFPNPNIFDPGHFLDKNGNFKKSDYFMPFSAGKRICAGEGLARMELFLFLTTILQNFNLKSVDDLKNLNTTAVTKGIVSLPPSYQICFIPV
Km [10]: 3.7 ± 0.6 µM | kcat [10]: 0.00483 s⁻¹ | kcat/Km [10]: 1830 M⁻¹ s⁻¹ | Km [11]: 3.0 ± 0.4 µM | kcat [11]: 0.095 ± 0.00333 s⁻¹ | kcat/Km [11]: 31700 M⁻¹ s⁻¹ | Km [12]: 4.0 ± 0.8 µM and 2.9 ± 0.6 µM

B3: CYP2C8.3 (Homo sapiens; K399R/R139K) (protein)
chain: MEPFVVLVLCLSFMLLFSLWRQSCRRRKLPPGPTPLPIIGNMLQIDVKDICKSFTNFSKVYGPVFTVYFGMNPIVVFHGYEAVKEALIDNGEEFSGRGNSPISQRITKGLGIISSNGKRWKEIRRFSLTTLRNFGMGKKSIEDRVQEEAHCLVEELRKTKASPCDPTFILGCAPCNVICSVVFQKRFDYKDQNFLTLMKRFNENFRILNSPWIQVCNNFPLLIDCFPGTHNKVLKNVALTRSYIREKVKEHQASLDVNNPRDFIDCFLIKMEQEKDNQKSEFNIENLVGTVADLFVAGTETTSTTLRYGLLLLLKHPEVTAKVQEEIDHVIGRHRSPCMQDRSHMPYTDAVVHEIQRYSDLVPTGVPHAVTTDTKFRNYLIPKGTTIMALLTSVLHDDREFPNPNIFDPGHFLDKNGNFKKSDYFMPFSAGKRICAGEGLARMELFLFLTTILQNFNLKSVDDLKNLNTTAVTKGIVSLPPSYQICFIPV
Km [10]: 4.7 ± 0.7 (−) µM | kcat [10]: 0.0127 s⁻¹ | kcat/Km [10]: 2670 M⁻¹ s⁻¹ | Km [13]: 7.5 ± 0.5 µM | kcat [13]: 0.497 ± 0.0117 s⁻¹ | kcat/Km [13]: 66700 M⁻¹ s⁻¹ | Km [14]: 10.2 ± 0.9 µM and 8.0 ± 0.6 µM

B4: CPR: Rat cytochrome P450 reductase, expressed; redox partner of CYP2C8 (protein, UniProt P00388 2-678, looked up)
NADPH--cytochrome P450 …: GDSHEDTSATMPEAVAEEVSLFSTTDMVLFSLIVGVLTYWFIFRKKKEEIPEFSKIQTTAPPVKESSFVEKMKKTGRNIIVFYGSQTGTAEEFANRLSKDAHRYGMRGMSADPEEYDLADLSSLPEIDKSLVVFCMATYGEGDPTDNAQDFYDWLQETDVDLTGVKFAVFGLGNKTYEHFNAMGKYVDQRLEQLGAQRIFELGLGDDDGNLEEDFITWREQFWPAVCEFFGVEATGEESSIRQYELVVHEDMDVAKVYTGEMGRLKSYENQKPPFDAKNPFLAAVTANRKLNQGTERHLMHLELDISDSKIRYESGDHVAVYPANDSALVNQIGEILGADLDVIMSLNNLDEESNKKHPFPCPTTYRTALTYYLDITNPPRTNVLYELAQYASEPSEQEHLHKMASSSGEGKELYLSWVVEARRHILAILQDYPSLRPPIDHLCELLPRLQARYYSIASSSKVHPNSVHICAVAVEYEAKSGRVNKGVATSWLRAKEPAGENGGRALVPMFVRKSQFRLPFKSTTPVIMVGPGTGIAPFMGFIQERAWLREQGKEVGETLLYYGCRRSDEDYLYREELARFHKDGALTQLNVAFSREQAHKVYVQHLLKRDREHLWKLIHEGGAHIYVCGDARNMAKDVQNTFYDIVAEFGPMEHTQAVDYVKKLMTKGRYSLDVWS
Kd (CYP2C8.1 [9]): 29.4 ± 0.2 nM | % change in Bmax, redox partner binding (CYP2C8.3 [1]): +76% | Kd (CYP2C8.3 [1]): 20.7 ± 0.2 nM
